Like-named read-outs stand apart in the source and are kept apart here.
Legend:
[1] = biological target: T1, N-terminally FLAG-tagged PARP2 (amino acids 1-583) (Homo sapiens, UniProt Q9UGN5); test: PARP2 probe displacement HTRF assay; type: binding; settings: binned Kd
T1 construct: N-terminally FLAG-tagged PARP2 (amino acids 1-583)
Experimental: Data analysis was performed identical as for PARP1.

[2] = biological target: T2, full length N-terminally FLAG-tagged PARP1 (Homo sapiens, UniProt P09874); test: PARP1 probe displacement HTRF assay; settings: for Selectivity: PARP1 over PARP2, ratio Kd (PARP2)/Kd (PARP1); for Kd: binned Kd
[3] = biological target: T2, full length N-terminally FLAG-tagged PARP1; test: PARP1 biochemical DELFIA assay (auto-PARylation); set-up: recombinant full length human N-terminally FLAG-tagged PARP1
[4] = read-out: PARP1 HTRF, PARP1 probe displacement HTRF
[5] = binned IC50, PARP1 biochemical DELFIA assay
[6] = PARP1 HTRF, PARP1 probe displacement HTRF
[7] = read-out: PARP1 HTRF, probe displacement HTRF
[8] = binned IC50, biochemical auto-PARylation assay

T2 sequence (P09874 whole entry): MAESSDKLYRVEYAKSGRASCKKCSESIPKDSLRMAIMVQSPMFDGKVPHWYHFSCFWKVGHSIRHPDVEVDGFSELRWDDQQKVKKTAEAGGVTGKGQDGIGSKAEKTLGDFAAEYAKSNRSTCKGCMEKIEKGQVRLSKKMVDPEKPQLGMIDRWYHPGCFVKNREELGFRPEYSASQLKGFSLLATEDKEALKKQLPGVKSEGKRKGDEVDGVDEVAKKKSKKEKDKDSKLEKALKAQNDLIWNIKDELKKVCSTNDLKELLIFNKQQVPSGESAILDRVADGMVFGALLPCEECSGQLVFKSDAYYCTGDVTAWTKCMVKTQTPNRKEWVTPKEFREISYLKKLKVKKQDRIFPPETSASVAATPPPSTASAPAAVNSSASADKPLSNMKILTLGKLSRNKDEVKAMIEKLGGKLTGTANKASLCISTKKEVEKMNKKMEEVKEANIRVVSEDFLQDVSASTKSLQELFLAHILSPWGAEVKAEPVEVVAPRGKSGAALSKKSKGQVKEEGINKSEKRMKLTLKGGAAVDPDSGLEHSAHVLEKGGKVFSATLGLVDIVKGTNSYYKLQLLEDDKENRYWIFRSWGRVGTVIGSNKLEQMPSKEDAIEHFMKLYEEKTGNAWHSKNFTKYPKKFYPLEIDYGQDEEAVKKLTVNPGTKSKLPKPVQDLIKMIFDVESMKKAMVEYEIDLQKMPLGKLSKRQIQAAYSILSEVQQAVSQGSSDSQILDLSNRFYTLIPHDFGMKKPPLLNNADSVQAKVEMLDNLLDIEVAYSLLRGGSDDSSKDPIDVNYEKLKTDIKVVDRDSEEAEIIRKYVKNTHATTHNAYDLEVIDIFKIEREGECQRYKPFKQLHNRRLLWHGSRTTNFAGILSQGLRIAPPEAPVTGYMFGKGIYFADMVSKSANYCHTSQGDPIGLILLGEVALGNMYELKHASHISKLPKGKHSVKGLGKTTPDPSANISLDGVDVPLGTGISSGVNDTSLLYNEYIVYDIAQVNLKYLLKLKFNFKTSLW
T1 sequence (Q9UGN5 whole entry, the tested form may be a part): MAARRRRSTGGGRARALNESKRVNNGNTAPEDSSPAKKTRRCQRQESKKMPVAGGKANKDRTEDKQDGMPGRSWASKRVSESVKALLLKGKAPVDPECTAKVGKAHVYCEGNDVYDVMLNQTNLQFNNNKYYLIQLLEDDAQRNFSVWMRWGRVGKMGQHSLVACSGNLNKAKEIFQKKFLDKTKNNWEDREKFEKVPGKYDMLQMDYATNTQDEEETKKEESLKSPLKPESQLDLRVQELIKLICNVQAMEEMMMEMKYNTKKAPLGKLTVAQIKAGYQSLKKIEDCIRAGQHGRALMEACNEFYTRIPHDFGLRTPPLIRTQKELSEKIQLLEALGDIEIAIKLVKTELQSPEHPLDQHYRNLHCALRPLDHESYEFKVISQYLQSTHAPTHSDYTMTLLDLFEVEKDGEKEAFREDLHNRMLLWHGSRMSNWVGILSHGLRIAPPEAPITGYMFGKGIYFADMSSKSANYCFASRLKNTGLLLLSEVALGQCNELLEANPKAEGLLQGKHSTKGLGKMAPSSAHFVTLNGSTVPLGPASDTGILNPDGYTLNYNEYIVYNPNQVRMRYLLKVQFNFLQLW

Kd ([1]; PARP2 probe displacement HTRF) [µM] | Kd [2, 4] [µM] | IC50 [3, 5] [µM] | Kd [2, 6] [µM] | Kd ([1]; probe displacement HTRF) [µM] | Kd [2, 7] [µM] | IC50 [3, 8] [µM] | Kd ([2]; PARP1 HTRF, probe displacement HTRF) [µM] | SMILES | Selectivity ([2]; probe displacement HTRF)
> 10 | 0.01 to 0.1 | 0.01 to 0.1 | – | – | – | – | – | CNC(=O)c1ccc(N2CCC(N3CCCC(c4nc5ncccc5c(=O)[nH]4)C3)CC2)cn1 (single isomer, unassigned) [Compound 98a] | +++ (+++ indicate a value of at least 100)
> 10 | 0.1 to 1 | 1 to 10 | – | – | – | – | – | O=c1[nH]c(CC2CCCN(C3CCC(F)(F)CC3)C2)nc2ccccc12 (single isomer, unassigned) [Compound 11a] | − (− indicates a value of less than 10)
> 10 | < 0.01 | < 0.01 | – | – | – | – | – | CNC(=O)c1ccc(N2CCC(N3CCC(c4nc5ncccc5c(=O)[nH]4)C3)CC2)cn1 (single isomer, unassigned) [Compound 60a] | +++ (+++ indicate a value of at least 100)
> 10 | 1 to 10 | 1 to 10 | – | – | – | – | – | CNC(=O)c1ccc(N2CCC(N3CCCC(c4ccc(OC)c(=O)[nH]4)C3)CC2)cn1 (single isomer, unassigned) [Compound 147b] | − (− indicates a value of less than 10)
1 to 10 | < 0.01 | < 0.01 | – | – | – | – | – | CNC(=O)c1ccc(N2CC(N3CCCC(c4nc5ccccc5c(=O)[nH]4)CC3)C2)cn1 (single isomer, unassigned) [Compound 145b] | +++ (+++ indicate a value of at least 100)
0.1 to 1 | 0.01 to 0.1 | 0.01 to 0.1 | – | – | – | – | – | CNC(=O)c1ccc(N2CCC(N3CCC(c4nc5c(c(=O)[nH]4)CCCN5)C3)CC2)cn1 (single isomer, unassigned) [Compound 214a] | ++ (++ indicates a value of 50 to less than 100)
> 10 | 0.01 to 0.1 | 0.01 to 0.1 | – | – | – | – | – | CNC(=O)c1ccc(N2CCC(N3CCC(c4ncc(C)c(=O)[nH]4)C3)CC2)cn1 (single isomer, unassigned) [Compound 35b] | +++ (+++ indicate a value of at least 100)
1 to 10 | 0.1 to 1 | 0.01 to 0.1 | – | – | – | – | – | CNC(=O)c1ccc(N2CCC(N3CCCC(c4nc5sc6c(c5c(=O)[nH]4)CCC6)C3)CC2)cn1 (single isomer, unassigned) [Compound 185b] | + (+ indicates a value of 10 to less than 50)
0.1 to 1 | 0.01 to 0.1 | 0.01 to 0.1 | – | – | – | – | – | CNC(=O)c1ccc(N2CCC(CN3CCCC(c4nc5ccccc5c(=O)[nH]4)C3)CC2)cn1 (single isomer, unassigned) [Compound 9b] | − (− indicates a value of less than 10)
> 10 | 1 to 10 | 1 to 10 | – | – | – | – | – | CCc1cnc(C2CCN(C3CCC(F)(F)CC3)C2)[nH]c1=O (single isomer, unassigned) [Compound 38b] | − (− indicates a value of less than 10)
1 to 10 | 0.1 to 1 | 0.01 to 0.1 | – | – | – | – | – | NC(=O)c1ccc(N2CCC(N3CCCC(c4nc5ccccc5c(=O)[nH]4)C3)CC2)cn1 (single isomer, unassigned) [Compound 109b] | + (+ indicates a value of 10 to less than 50)
0.1 to 1 | < 0.01 | < 0.01 | – | – | – | – | – | CNC(=O)c1ccc(N2CCC(N3CCCC(c4nc5sc6c(c5c(=O)[nH]4)CCC6)C3)CC2)cn1 (single isomer, unassigned) [Compound 185a] | +++ (+++ indicate a value of at least 100)
> 10 | < 0.01 | 0.01 to 0.1 | – | – | – | – | – | NC(=O)c1ccc(N2CCC(N3CCCC(c4nc5ccccc5c(=O)[nH]4)C3)CC2)cn1 (single isomer, unassigned) [Compound 109a] | +++ (+++ indicate a value of at least 100)
0.1 to 1 | 0.01 to 0.1 | 0.01 to 0.1 | – | – | – | – | – | CNC(=O)c1ccc(N2CCC(N3CCC(c4nc5c(c(=O)[nH]4)CCCC5)C3)CC2)cn1 (single isomer, unassigned) [Compound 155a] | + (+ indicates a value of 10 to less than 50)
> 10 | 0.1 to 1 | 0.1 to 1 | – | – | – | – | – | CNC(=O)c1ccc(N2CCC(N3CCC(c4ccc(Cl)c(=O)[nH]4)C3)CC2)cn1 (single isomer, unassigned) [Compound 201a] | + (+ indicates a value of 10 to less than 50)
1 to 10 | 0.1 to 1 | 0.1 to 1 | – | – | – | – | – | CNC(=O)c1ccc(F)c(N2CCC(N3CCC(c4nc5ccccc5c(=O)[nH]4)C3)CC2)n1 (racemic) [Compound 105rac] | − (− indicates a value of less than 10)

Kd ([1]; PARP2 probe displacement HTRF) [µM] | Kd [2, 4] [µM] | IC50 [3, 5] [µM] | Kd [2, 6] [µM] | Kd ([1]; probe displacement HTRF) [µM] | Kd [2, 7] [µM] | IC50 [3, 8] [µM] | Kd ([2]; PARP1 HTRF, probe displacement HTRF) [µM] | SMILES | Selectivity ([2]; probe displacement HTRF)
0.1 to 1 | 0.01 to 0.1 | 0.01 to 0.1 | – | – | – | – | – | CNC(=O)c1ccc(N2CCC(N3CCC(c4nc5cccc(F)c5c(=O)[nH]4)C3)CC2)cn1 (single isomer, unassigned) [Compound 101a] | + (+ indicates a value of 10 to less than 50)
> 10 | > 10 | > 10 | – | – | – | – | – | CNC(=O)c1ccc(N2CCC(N3CCC(c4nc(C)cc(=O)[nH]4)C3)CC2)cn1 (single isomer, unassigned) [Compound 97a] | − (− indicates a value of less than 10)
0.1 to 1 | 0.01 to 0.1 | 0.01 to 0.1 | – | – | – | – | – | CNC(=O)c1ccc(N2CCC(N3CCC(c4nc5cccc(C(F)(F)F)c5c(=O)[nH]4)C3)CC2)cn1 (single isomer, unassigned) [Compound 86a] | + (+ indicates a value of 10 to less than 50)
> 10 | 0.01 to 0.1 | 0.01 to 0.1 | – | – | – | – | – | CNC(=O)c1ccc(N2CCC(N3CCC(c4ccc(CC5CC5)c(=O)[nH]4)C3)CC2)cn1 (single isomer, unassigned) [Compound 213a] | +++ (+++ indicate a value of at least 100)
> 10 | – | < 0.01 | < 0.01 | – | – | – | – | CNC(=O)c1ccc(N2CCC(N3CCCC(c4nc5ccccc5c(=O)[nH]4)C3)CC2)cn1 (single isomer, unassigned) [Compound 6a, N-methyl-5-(3-(4-oxo-3,4-dihydroquinazolin-2-yl)-[1,4′-bipiperidin]-1′-yl)picolinamide] | +++ (+++ indicate a value of at least 100)
1 to 10 | – | < 0.01 | < 0.01 | – | – | – | – | CNC(=O)c1ccc(N2CCC(N3CCC(c4cc5cccc(F)c5c(=O)[nH]4)C3)CC2)c(F)n1 (single isomer, unassigned) [Compound 184a, 6-fluoro-5-[4-[3-(8-fluoro-1-oxo-2H-isoquinolin-3-yl)pyrrolidin-1-yl]piperidin-1-yl]-N-methylpyridine-2-carboxamide] | +++ (+++ indicate a value of at least 100)
– | – | – | – | 0.1 to 1 | < 0.01 | < 0.01 | – | CNC(=O)c1ncc(N2CCC(N3CCC(c4cc5ccc(F)cc5c(=O)[nH]4)C3)CC2)c(C)n1 (single isomer, unassigned) [Compound 265b] | +++ (+++ indicate a value of at least 100)
1 to 10 | 0.1 to 1 | 0.1 to 1 | – | – | – | – | – | N#Cc1ccc(N2CCC(N3CCCC(c4nc5ccccc5c(=O)[nH]4)C3)CC2)nc1 (single isomer, unassigned) [Compound 74a] | + (+ indicates a value of 10 to less than 50)
– | – | – | – | > 10 | – | < 0.01 | < 0.01 | N#Cc1ccc(N2CCC(N3CC4(c5nc6ccc(F)cc6c(=O)[nH]5)CC3C4)CC2)c(F)c1 [Compound 380] | +++ (+++ indicate a value of at least 100)
1 to 10 | – | < 0.01 | 0.01 to 0.1 | – | – | – | – | CNC(=O)c1ccc(OCCN2CCC(c3nc4ccccc4c(=O)[nH]3)CC2)cn1 [Compound 63] | ++ (++ indicates a value of 50 to less than 100)
– | – | – | – | 1 to 10 | 0.1 to 1 | 0.1 to 1 | – | CS(=O)(=O)Nc1ccc(N2CCC(N3CCC(c4nc5ccccc5c(=O)[nH]4)C3)CC2)cc1 (single isomer, unassigned) [Compound 250a] | − (− indicates a value of less than 10)
1 to 10 | < 0.01 | < 0.01 | – | – | – | – | – | CNC(=O)c1ccc(N2CCC(N3CCC(c4nc5ccccc5c(=O)[nH]4)C3)CC2)c(C(F)F)n1 (single isomer, unassigned) [Compound 158a] | +++ (+++ indicate a value of at least 100)
– | – | – | – | 0.1 to 1 | < 0.01 | < 0.01 | – | CCc1ccc(C2CCN(C3CCN(c4cnc(C(=O)NC)nc4Cl)CC3)C2)[nH]c1=O (racemic) [Compound 242rac] | ++ (++ indicates a value of 50 to less than 100)
– | – | – | – | 0.1 to 1 | < 0.01 | < 0.01 | – | CNC(=O)c1ncc(N2CCC(N3CCC(c4cc5cccc(F)c5c(=O)[nH]4)C3)CC2)cn1 (racemic) [Compound 234rac] | +++ (+++ indicate a value of at least 100)
– | – | – | – | 1 to 10 | < 0.01 | < 0.01 | – | CCc1ccc(C2CCN(C3CCN(c4cnc(C(=O)NC)nc4C)CC3)C2)[nH]c1=O (single isomer, unassigned) [Compound 246b] | +++ (+++ indicate a value of at least 100)
0.1 to 1 | 0.01 to 0.1 | 0.01 to 0.1 | – | – | – | – | – | CNC(=O)c1ccc(N2CCC(N3CCC(c4nc5c(F)ccc(F)c5c(=O)[nH]4)C3)CC2)cn1 (single isomer, unassigned) [Compound 182a] | + (+ indicates a value of 10 to less than 50)

Reference: patent US20250152585A1, “PHARMACEUTICAL COMPOUND” (Duke Street Bio Limited, priority 2022, published 2025)
